Assays:
Type in all cases: cell-based
CCRF-CEM = test: NCI screen, growth of human tumor cells: Leukemia CCRF-CEM; conditions: CCRF-CEM
In short: (§1)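 The NCI screen tests each compound on human cancer cell lines and reports percent growth. Concentrations are given in molar units; the number of data points per compound is sixty at minimum.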

RPMI-8226 = test: NCI screen, growth of human tumor cells: Leukemia RPMI-8226; conditions: RPMI-8226 (Leukemia), 10^−4 molar
In short: as §1

SR = test: NCI screen, growth of human tumor cells: Leukemia SR; conditions: SR
In short: as §1

AS49/ATCC = test: NCI screen, growth of human tumor cells: Non-Small Cell Lung AS49/ATCC; conditions: A549/ATCC, 10^−4 molar
In short: as §1

EKVX = test: NCI screen, growth of human tumor cells: Non-Small Cell Lung EKVX; conditions: EKVX, 10^−4 molar
In short: as §1

HOP-62 = test: NCI screen, growth of human tumor cells: Non-Small Cell Lung HOP-62
In short: as §1

HOP-92 = test: NCI screen, growth of human tumor cells: Non-Small Cell Lung HOP-92
In short: as §1

NCI-H522 = test: NCI screen, growth of human tumor cells: Non-Small Cell Lung NCI-H522
In short: as §1

NCI-H322M = test: NCI screen, growth of human tumor cells: Non-Small Cell Lung NCI-H322M; conditions: NCI-H322M, 10^−4 molar
In short: as §1

NCI-H23 = test: NCI screen, growth of human tumor cells: Non-Small Cell Lung NCI-H23; conditions: NCI-H23, 10^−4 molar
In short: as §1

COLO205 = test: NCI screen, growth of human tumor cells: Colon Cancer COLO205
In short: as §1

HCT-116 = test: NCI screen, growth of human tumor cells: Colon Cancer HCT-116; conditions: HCT-116, 10^−4 molar
In short: as §1

HCT-15 = test: NCI screen, growth of human tumor cells: Colon Cancer HCT-15; conditions: HCT-15, 10^−4 molar
In short: as §1

HT29 = test: NCI screen, growth of human tumor cells: Colon Cancer HT29; conditions: HT29 (Colon Cancer), 10^−4 molar
In short: as §1

KM12 = test: NCI screen, growth of human tumor cells: Colon Cancer KM12; conditions: KM12, 10^−4 molar
In short: as §1

SF-295 = test: NCI screen, growth of human tumor cells: CNS Cancer SF-295; conditions: SF-295, 10^−4 molar
In short: as §1

SNB-19 = test: NCI screen, growth of human tumor cells: CNS Cancer SNB-19
In short: as §1

SF-539 = test: NCI screen, growth of human tumor cells: CNS Cancer SF-539
In short: as §1

SNB-75 = test: NCI screen, growth of human tumor cells: CNS Cancer SNB-75
In short: as §1

LOXIMVI = test: NCI screen, growth of human tumor cells: Melanoma LOXIMVI; conditions: LOXIMVI
In short: as §1

MALME-3M = test: NCI screen, growth of human tumor cells: Melanoma MALME-3M; conditions: MALME-3M
In short: as §1

SK-MEL-2 = test: NCI screen, growth of human tumor cells: Melanoma SK-MEL-2
In short: as §1

SK-MEL-5 = test: NCI screen, growth of human tumor cells: Melanoma SK-MEL-5
In short: as §1

UACC-62 = test: NCI screen, growth of human tumor cells: Melanoma UACC-62; conditions: UACC-62 (Melanoma), 10^−4 molar
In short: as §1

IGROVI = test: NCI screen, growth of human tumor cells: Ovarian Cancer IGROVI; conditions: IGROVI
In short: as §1

OVCAR-3 = test: NCI screen, growth of human tumor cells: Ovarian Cancer OVCAR-3; conditions: OVCAR-3, 10^−4 molar
In short: as §1

OVCAR-4 = test: NCI screen, growth of human tumor cells: Ovarian Cancer OVCAR-4; conditions: OVCAR-4, 10^−4 molar
In short: as §1

OVCAR-5 = test: NCI screen, growth of human tumor cells: Ovarian Cancer OVCAR-5; conditions: OVCAR-5 (Ovarian Cancer), 10^−4 molar
In short: as §1

OVCAR-8 = test: NCI screen, growth of human tumor cells: Ovarian Cancer OVCAR-8; conditions: OVCAR-8, 10^−4 molar
In short: as §1

TK-10 = test: NCI screen, growth of human tumor cells: Renal Cancer TK-10; conditions: TK-10 (Renal Cancer), 10^−4 molar
In short: as §1

SN12C = test: NCI screen, growth of human tumor cells: Renal Cancer SN12C; conditions: SN12C, 10^−4 molar
In short: as §1

CAKI-1 = test: NCI screen, growth of human tumor cells: Renal Cancer CAKI-1; conditions: CAKI-1 (Renal Cancer), 10^−4 molar
In short: as §1

UO-31 = test: NCI screen, growth of human tumor cells: Renal Cancer UO-31; conditions: UO-31, 10^−4 molar
In short: as §1

MCF 7 = test: NCI screen, growth of human tumor cells: Breast Cancer MCF 7; conditions: MCF7, 10^−4 molar
In short: as §1

MCF7/ADR-RES = test: NCI screen, growth of human tumor cells: Breast Cancer MCF7/ADR-RES; conditions: MCF7/ADR-RES (Breast Cancer), 10^−4 molar
In short: as §1

BT-549 = test: NCI screen, growth of human tumor cells: Breast Cancer BT-549; conditions: BT-549, 10^−4 molar
In short: as §1

With `CC(=O)C1(CC2=C(C)C(=O)c3ccccc3C2=O)S(=O)(=O)OCCOS1(=O)=O` [NSC 701690] the “% Growth” value (CCRF-CEM; 10^−4 molar) was −73%, the “% Growth” value (CCRF-CEM; 10^−5 molar) was 55% and the “percent of growth of human tumor cells” value (RPMI-8226) was −18%. For the same compound, the “% Growth” value (SR; 10^−4 molar) was −100%, the “% Growth” value (SR; 10^−5 molar) was −8% and the “% Growth” value (SR; 10^−6 molar) was 19%. For the same compound, the “% Growth” value (AS49/ATCC) was −97%, the “% Growth” value (EKVX) was −91% and the “% Growth” value (HOP-62; HOP-62, 10^−4 molar) was −92%. For the same compound, the “% Growth” value (HOP-62; HOP-62, 10^−5 molar) was 52%, the “% Growth” value (HOP-92; HOP-92, 10^−4 molar) was −66% and the “% Growth” value (HOP-92; HOP-92, 10^−5 molar) was 23%. For the same compound, the “% Growth” value (HOP-92; HOP-92, 10^−6 molar) was 60%, the “% Growth” value (NCI-H522; NCI-H522, 10^−4 molar) was −100% and the “% Growth” value (NCI-H522; NCI-H522, 10^−5 molar) was 35%. For the same compound, the “% Growth” value (NCI-H522; NCI-H522, 10^−6 molar) was 57%, the “% Growth” value (NCI-H522; NCI-H522, 10^−7 molar) was 77% and the “% Growth” value (NCI-H522; NCI-H522, 10^−8 molar) was 67%. For the same compound, the “% Growth” value (NCI-H322M) was −100%, the “% Growth” value (NCI-H23) was −91% and the “% Growth” value (COLO205; COLO205, 10^−4 molar) was −100%. The “% Growth” value (COLO205; COLO205, 10^−5 molar) was 60%, the “% Growth” value (COLO205; COLO205, 10^−6 molar) was 58% and the “% Growth” value (HCT-116) was −100%. The “% Growth” value (HCT-15) was −100%, the “percent of growth of human tumor cells” value (HT29) was −25% and the “% Growth” value (KM12) was −71%. The “% Growth” value (SF-295) was −100%, the “% Growth” value (SNB-19; SNB-19, 10^−4 molar) was −47% and the “% Growth” value (SNB-19; SNB-19, 10^−5 molar) was 53%. For the same compound, the “% Growth” value (SF-539; SF-539, 10^−4 molar) was −100%, the “% Growth” value (SF-539; SF-539, 10^−5 molar) was 44% and the “% Growth” value (SNB-75; SNB-75, 10^−4 molar) was −100%. For the same compound, the “% Growth” value (SNB-75; SNB-75, 10^−5 molar) was 45%, the “% Growth” value (LOXIMVI; 10^−4 molar) was −100% and the “% Growth” value (LOXIMVI; 10^−5 molar) was 36%. For the same compound, the “% Growth” value (MALME-3M; 10^−4 molar) was −100%, the “% Growth” value (MALME-3M; 10^−5 molar) was 38% and the “% Growth” value (MALME-3M; 10^−6 molar) was 43%. For the same compound, the “% Growth” value (SK-MEL-2; SK-MEL-2, 10^−4 molar) was −73%, the “% Growth” value (SK-MEL-2; SK-MEL-2, 10^−5 molar) was 7% and the “% Growth” value (SK-MEL-2; SK-MEL-2, 10^−6 molar) was −2%. The “% Growth” value (SK-MEL-2; SK-MEL-2, 10^−7 molar) was −8%, the “% Growth” value (SK-MEL-2; SK-MEL-2, 10^−8 molar) was −3% and the “% Growth” value (SK-MEL-5; SK-MEL-5, 10^−4 molar) was −100%. The “% Growth” value (SK-MEL-5; SK-MEL-5, 10^−5 molar) was 58%, the “percent of growth of human tumor cells” value (UACC-62) was −57% and the “% Growth” value (IGROVI; 10^−4 molar) was −100%. The “% Growth” value (IGROVI; 10^−5 molar) was 40%, the “% Growth” value (IGROVI; 10^−6 molar) was 60% and the “% Growth” value (OVCAR-3) was −73%. For the same compound, the “% Growth” value (OVCAR-4) was −100%, the “percent of growth of human tumor cells” value (OVCAR-5) was −53% and the “% Growth” value (OVCAR-8) was −100%. The “percent of growth of human tumor cells” value (TK-10) was −8%, the “% Growth” value (SN12C) was −100% and the “percent of growth of human tumor cells” value (CAKI-1) was −53%. For the same compound, the “% Growth” value (UO-31) was −92%, the “% Growth” value (MCF 7) was −100% and the “percent of growth of human tumor cells” value (MCF7/ADR-RES) was −40%. The “% Growth” value (BT-549) was −100%.

From patent US8124793B2, “Derivatives of ethylene methanedisulfonate as cancer chemotherapeutic agents” (priority 2007, dated 2012)
